Test results: paper PMC12467433, “Isoniazid-Derived Hydrazones Featuring Piperazine/Piperidine Rings: Design, Synthesis, and Investigation of Antitubercular Activity” (Biomolecules, 2025)
≈ marks a conversion by molar mass, not a printed value. Like-named read-outs stand apart in the source and are kept apart here.

Columns and labels:
InhA = biological target: T1, InhA (Mycobacterium tuberculosis, UniProt P9WGR1); assay: InhA inhibition (NADH oxidation at 340 nm, DDCoA substrate); format: biochemical; details: for inhibition at 50 µM: at 50 μM concentration, NI: No inhibition
T1 construct: made in house
T1 sequence (P9WGR1 whole entry, looked up): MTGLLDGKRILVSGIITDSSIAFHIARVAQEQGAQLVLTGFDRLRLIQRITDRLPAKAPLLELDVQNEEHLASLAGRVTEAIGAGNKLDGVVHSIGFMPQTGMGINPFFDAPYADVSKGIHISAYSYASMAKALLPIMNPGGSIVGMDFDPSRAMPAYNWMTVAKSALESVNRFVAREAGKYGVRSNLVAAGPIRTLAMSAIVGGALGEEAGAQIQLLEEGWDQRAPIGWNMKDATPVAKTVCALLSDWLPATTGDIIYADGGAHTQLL

Mtb H37Rv = assay: Microplate Alamar Blue Assay (MABA), Mtb H37Rv; format: cell-based, Mycobacterium tuberculosis; details: for MIC: MABA, one-week incubation
[1] = MTT cytotoxicity assay, HEK 293; format: cell-based; details: human, HEK 293 cells, HEK 293, MTT, triplicate, read-out: Toxicity IC50
Source text: (§1) 2.2.2. Assay for Host Cytotoxicity Determination
(§2) The MTT (3-(4,5-dimethylthiazol-2-yl)-2,5-diphenyltetrazolium bromide) assay was applied to determine the cytotoxicity of the synthesized molecules against Human Embryonic Kidney cells (HEK 293) and adenocarcinomic human alveolar basal epithelial cells (A549) cell lines, obtained from the American Type Culture Collection (ATCC) with the accession numbers ATCC CRL-1573 and ATCC CCL-185, respectively. […] A vehicle control containing 1% DMSO in culture medium without any compound was included to account for any solvent-related effects. Cells were seeded at a density of 1 × 10^4 cells per well in a sterile 96-well microtiter plate and incubated for 24 h to allow attachment. Following this, the compounds were added in ten-fold serial dilutions ranging from 100 μM to 0.001 μM, and the plates were incubated for 48 h at 37 °C with 5% CO2.
(§3) After incubation, the medium was removed and replaced with 10 μL of MTT solution (5 mg/mL) in each well, followed by a 3 h incubation under the same conditions. The MTT reagent was then discarded, and 100 μL of DMSO was added to each well to solubilize the formazan crystals. Absorbance was measured at 580 nm using a Thermo Scientific Varioskan LUX microplate reader, with blanks subtracted from each value. All experiments were performed in three independent biological replicates, for every concentration tested. The IC50 values were calculated using GraphPad Prism 10.6.0 [28, 29].

[2] = MTT cytotoxicity assay, A549; format: cell-based; details: human, A549 cells, triplicate, read-out: Toxicity IC50
Source text: as §1, §2, §3

[3] = Mycobacterium tuberculosis, H37RV, 168 h

Row | SMILES | inhibition at 50 µM (InhA) [%] | MIC (Mtb H37Rv; [3]) [µM] | MIC (Mtb H37Rv) [µM] | MIC50 (Mtb H37Rv; Mycobacterium tuberculosis) [µM] | IC50 at 48 h [1] [µM] | IC50 at 48 h [2] [µM] | IC50 (InhA; read-out: IC50 against InhA enzyme) [µM] | MIC50 (Mtb H37Rv) [µM]
1 | O=C(NN=Cc1ccc(N2CCN(c3ccccc3)CC2)cc1)c1ccncc1 [IP1, N′-(4-(4-Phenylpiperazin-1-yl)benzylidene)isonicotinohydrazide] | < 10 | 50 (≈ 19.3 µg/mL) |  |  |  |  |  | 
2 | O=C(NN=Cc1ccc(N2CCN(c3ccc(C(F)(F)F)cc3)CC2)cc1)c1ccncc1 [IP6, N′-(4-(4-(4-(Trifluoromethyl)phenyl)piperazin-1-yl)benzylidene)isonicotinohydrazide] | 37 | 12.5 (≈ 5.67 µg/mL) |  |  |  |  |  | 
3 | O=C(NN=Cc1ccc(N2CCN(c3ccccc3F)CC2)cc1)c1ccncc1 [IP2, N′-(4-(4-(2-Fluorophenyl)piperazin-1-yl)benzylidene)isonicotinohydrazide] | 19 | > 100 | >100 |  |  |  |  | 
4 | NC(=O)C1CCN(c2ccc(C=NNC(=O)c3ccncc3)cc2)CC1 [IP13, 1-(4-((2-Isonicotinoylhydrazono)methyl)phenyl)piperidine-4-carboxamide] | < 10 | ≤ 0.78 |  | 0.53 ± 0.24 (≈ 0.186 µg/mL) | > 100 | > 100 |  | 
5 | CCOC(=O)C1CCN(c2ccc(C=NNC(=O)c3ccncc3)cc2)CC1 [IP12, Ethyl 1-(4-((2-isonicotinoylhydrazono)methyl)phenyl)piperidine-4-carboxylate] | 17 | ≤ 0.78 |  | 0.47 ± 0.05 (≈ 0.179 µg/mL) | > 100 | > 100 |  | 
6 | CN1CCN(c2ccc(C=NNC(=O)c3ccncc3)cc2)CC1 [IP10, N′-(4-(4-Methylpiperazin-1-yl)benzylidene)isonicotinohydrazide] | 30 | ≤ 0.78 |  | 0.31 ± 0.04 (≈ 0.1 µg/mL) | > 100 | > 100 |  | 
7 | Cc1ccc(N2CCN(c3ccc(C=NNC(=O)c4ccncc4)cc3)CC2)c(C)c1 [IP5, N′-(4-(4-(2,4-Dimethylphenyl)piperazin-1-yl)benzylidene)isonicotinohydrazide] | 16 | 50 (≈ 20.7 µg/mL) |  |  |  |  |  | 
8 | O=C(NN=Cc1ccc(N2CCN(c3ccc(Cl)cc3)CC2)cc1)c1ccncc1 [IP3, N′-(4-(4-(4-Chlorophenyl)piperazin-1-yl)benzylidene)isonicotinohydrazide] | 21 | 50 (≈ 21 µg/mL) |  |  |  |  |  | 
9 | NNC(=O)c1ccncc1 [INH, isonicotinic acid hydrazide, reference compound] |  | 0.39 (≈ 0.0535 µg/mL) |  | 0.23 ± 0.04 (≈ 0.0315 µg/mL) |  |  |  | 
10 | O=C(NN=Cc1ccc(N2CCN(C3CCCCC3)CC2)cc1)c1ccncc1 [IP11, N′-(4-(4-Cyclohexylpiperazin-1-yl)benzylidene)isonicotinohydrazide] | 81 | ≤ 0.78 |  | 0.29 ± 0.05 (≈ 0.114 µg/mL) | > 100 | > 100 | 26.4 ± 3.97 | 0.29 (≈ 0.114 µg/mL)
11 | O=C(NN=Cc1ccc(N2CCN(c3ccccn3)CC2)cc1)c1ccncc1 [IP8, N′-(4-(4-(Pyridin-2-yl)piperazin-1-yl)benzylidene)isonicotinohydrazide] | < 10 | ≤ 0.78 |  | 0.31 ± 0.21 (≈ 0.12 µg/mL) | > 100 | > 100 |  | 
12 | O=C(NN=Cc1ccc(N2CCN(c3ncccn3)CC2)cc1)c1ccncc1 [IP9, N′-(4-(4-(Pyrimidin-2-yl)piperazin-1-yl)benzylidene)isonicotinohydrazide] | < 10 | ≤ 0.78 |  | 0.79 ± 0.23 (≈ 0.306 µg/mL) | > 100 | > 100 |  | 
13 | COc1ccc(N2CCN(c3ccc(C=NNC(=O)c4ccncc4)cc3)CC2)cc1 [IP7, N′-(4-(4-(4-Methoxyphenyl)piperazin-1-yl)benzylidene)isonicotinohydrazide] | 10 | ≤ 0.78 |  | 0.74 ± 0.1 (≈ 0.307 µg/mL) |  |  |  | 
14 | O=C(NN=Cc1ccc(N2CCN(c3ccc(Br)cc3)CC2)cc1)c1ccncc1 [IP4, N′-(4-(4-(4-Bromophenyl)piperazin-1-yl)benzylidene)isonicotinohydrazide] | < 10 | 100 (≈ 46.4 µg/mL) |  |  |  |  |  | 
